In the supplement of paper PMC7661543:
± gives the standard deviation of the averaged measurements.

Assays:
Experiment in all cases: relative cell number vs DMSO control (72 h) (% of DMSO); higher = less growth inhibition (more cells)
Conditions in all cases: sgRNA knockout: sgNT
[1] = test system: BT-20
In short: (§1)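 After 6 days of induction with 100 ng/mL doxycycline, pooled Cas9-engineered breast cancer lines were plated at 5000 cells per 96-well and dosed in duplicate for 72 h at four 10-fold concentrations (10 nM–10 μM or 1 nM–1 μM). Cell numbers came from sequenced sgRNA and cell-line barcode reads, interpolated against 293T spike-in standard curves made for each sample. Relative cell number is reported against the median of DMSO-treated samples as a percent.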

[2] = test system: HCC-38
In short: as §1

[3] = test system: MDA-MB-231
In short: as §1

[4] = test system: SKBR3
In short: as §1

[5] = test system: ZR-75-1
In short: as §1

Row | Structure (SMILES) | relative cell number ([1]; 10 nM) | relative cell number ([1]; 100 nM) | relative cell number ([1]; 1000 nM) | relative cell number ([1]; 10000 nM) | relative cell number ([2]; 10 nM) | relative cell number ([2]; 100 nM) | relative cell number ([2]; 1000 nM) | relative cell number ([2]; 10000 nM) | relative cell number ([3]; 10 nM) | relative cell number ([3]; 100 nM) | relative cell number ([3]; 1000 nM) | relative cell number ([3]; 10000 nM) | relative cell number ([4]; 10 nM) | relative cell number ([4]; 100 nM) | relative cell number ([4]; 1000 nM) | relative cell number ([4]; 10000 nM) | relative cell number ([5]; 10 nM) | relative cell number ([5]; 100 nM) | relative cell number ([5]; 1000 nM) | relative cell number ([5]; 10000 nM) | relative cell number ([1]; 1 nM) | relative cell number ([2]; 1 nM) | relative cell number ([3]; 1 nM) | relative cell number ([4]; 1 nM) | relative cell number ([5]; 1 nM)
1 | c1cc(Nc2cc(C3CC3)[nH]n2)nc(Nc2ccc3nc[nH]c3c2)n1 [APY29] | 120 ± 4.3 | 79.9 ± 16 | 88.3 ± 10 | 40.7 ± 5.9 | 91.3 ± 16 | 64.3 ± 3.1 | 26.6 ± 2.5 | 23.3 ± 0.34 | 109 ± 5.4 | 52.8 ± 4.2 | 17.1 ± 3.7 | 10.7 ± 3.8 | 110 ± 9 | 40.6 ± 1.2 | 12.5 ± 6.6 | 5.99 ± 1.9 | 119 ± 26 | 74 ± 39 | 23.6 ± 1.6 | 10.7 ± 9.5 | – | – | – | – | –
2 | C=C(C)[C@@H]1CC[C@]2(C(=O)O)CC[C@]3(C)[C@H](CC[C@@H]4[C@@]5(C)CC[C@H](O)C(C)(C)[C@@H]5CC[C@]43C)[C@@H]12 [BetulinicAcid] | 86.7 ± 12 | 78.6 ± 3.6 | 86.4 ± 13 | 108 ± 1.7 | 106 ± 10 | 82.2 ± 9.4 | 98 ± 32 | 96.4 ± 1.5 | 74.3 ± 2.1 | 92.9 ± 11 | 69.8 ± 21 | 117 ± 24 | 76.3 ± 23 | 95 ± 13 | 86 ± 5.5 | 96.4 ± 11 | 90.9 ± 11 | 97.1 ± 4.8 | 94.5 ± 43 | 110 ± 11 | – | – | – | – | –
3 | Cc1ccc2c(c1)C(=O)C1(O)CCN(c3ccccc3)C1=N2 (stereo not given) [Blebbistatin] | 115.9 ± 0.31 | 128 ± 6.2 | 130 ± 4 | 125 ± 46 | 125 ± 10 | 118 ± 4.2 | 115 ± 13 | 69.5 ± 7.5 | 110 ± 16 | 138.4 ± 0.51 | 144 ± 49 | 97 ± 12 | 114 ± 20 | 111 ± 16 | 126 ± 11 | 96.52 ± 0.14 | 108 ± 9.9 | 112 ± 9.8 | 98.1 ± 39 | 84.1 ± 7.3 | – | – | – | – | –
4 | CO[C@H]1C[C@@H]2CC[C@@H](C)[C@@](O)(O2)C(=O)C(=O)N2CCCC[C@H]2C(=O)O[C@H]([C@H](C)C[C@@H]2CC[C@@H](OCCO)[C@H](OC)C2)CC(=O)[C@H](C)/C=C(\C)[C@@H](O)[C@@H](OC)C(=O)[C@H](C)C[C@H](C)/C=C/C=C/C=C/1C [Everolimus] | 63.7 ± 4.2 | 49.5 ± 6.8 | 71.5 ± 5.7 | – | 59.2 ± 2.3 | 64.7 ± 2.1 | 59.7 ± 3.3 | – | 50.9 ± 14 | 87.5 ± 11 | 88.3 ± 6.2 | – | 67.6 ± 1.8 | 57.5 ± 21 | 70.7 ± 0.84 | – | 66.8 ± 8.4 | 58 ± 11 | 42.7 ± 18 | – | 56 ± 3.1 | 56.5 ± 4.8 | 76.3 ± 15 | 55.6 ± 18 | 69.7 ± 18
5 | COc1cc2nccc(Oc3ccc(NC(=O)NC4CC4)c(Cl)c3)c2cc1C(N)=O [Lenvatinib] | 94.9 ± 21 | 97.5 ± 14 | 128 ± 7.1 | 93.5 ± 36 | 95.3 ± 5.8 | 96.8 ± 4.3 | 101 ± 33 | 68.4 ± 10 | 94.7 ± 34 | 122 ± 7.1 | 114 ± 15 | 86.5 ± 25 | 111 ± 9.8 | 92.6 ± 8.6 | 85.9 ± 42 | 94.1 ± 35 | 84.1 ± 11 | 92.2 ± 22 | 108 ± 20 | 90.8 ± 15 | – | – | – | – | –
6 | CCC(C)(C)C(=O)O[C@H]1C[C@@H](C)C=C2C=C[C@H](C)[C@H](CC[C@@H]3C[C@@H](O)CC(=O)O3)[C@H]21 [Simvastatin] | 108 ± 18 | 72.5 ± 13 | 89.7 ± 26 | 91.4 ± 19 | 90.5 ± 2.1 | 96 ± 21 | 103 ± 12 | 87.5 ± 13 | 130 ± 20 | 115 ± 28 | 82.6 ± 8.9 | 34.2 ± 13 | 95.7 ± 4.9 | 60.8 ± 3.1 | 113 ± 23 | 66.7 ± 15 | 95.6 ± 57 | 75.2 ± 6 | 109 ± 39 | 75.6 ± 20 | – | – | – | – | –
7 | Cc1ccccc1-n1c(Cn2cnc3c(N)ncnc32)nc2cccc(C)c2c1=O | 110 ± 2.1 | 133 ± 22 | 102 ± 15 | 113 ± 5.9 | 97.9 ± 27 | 104 ± 18 | 102 ± 12 | 95.6 ± 8.2 | 123 ± 7.7 | 128 ± 20 | 101 ± 9 | 153 ± 48 | 104 ± 11 | 107 ± 12 | 101.8 ± 0.55 | 93.3 ± 7.2 | 112 ± 23 | 98.5 ± 40 | 71.4 ± 14 | 105 ± 6 | – | – | – | – | –
8 | CN1CCN(CCCN2c3ccccc3Sc3ccc(C(F)(F)F)cc32)CC1 [Trifluoperazine] | 80.3 ± 46 | 90.7 ± 11 | 82.4 ± 4.9 | 78.4 ± 15 | 97.3 ± 7 | 86.1 ± 5.2 | 111 ± 8.7 | 80.4 ± 6.6 | 77.9 ± 18 | 117 ± 43 | 99.2 ± 25 | 77.8 ± 7.4 | 57.9 ± 35 | 79 ± 23 | 80.65 ± 0.72 | 50.3 ± 10 | 77.4 ± 46 | 81.3 ± 30 | 80.7 ± 20 | 37.4 ± 5.8 | – | – | – | – | –
9 | CC/C(=C(\c1ccc(O)cc1)c1ccc(OCCN(C)C)cc1)c1ccccc1 [4-Hydroxytamoxifen] | 96.8 ± 8.9 | 88.3 ± 28 | 106 ± 10 | 74.5 ± 21 | 94.8 ± 10 | 93.2 ± 5.7 | 90.4 ± 20 | 81.5 ± 14 | 95.8 ± 17 | 88.2 ± 7.9 | 100 ± 3.5 | 96.2 ± 9 | 104 ± 19 | 100 ± 45 | 80 ± 2.2 | 40.6 ± 10 | 95.8 ± 9.6 | 61.5 ± 4.8 | 70.2 ± 15 | 34.6 ± 8.6 | – | – | – | – | –
10 | OCCn1cc(-c2ccc3c(c2)CC/C3=N\O)c(-c2ccncc2)n1 [GDC0879] | 103 ± 17 | 112 ± 4.5 | 130 ± 8 | 110 ± 1.5 | 104 ± 17 | 124 ± 10 | 134 ± 12 | 107 ± 4.3 | 114 ± 15 | 92 ± 2.5 | 106 ± 4.8 | 105 ± 5.9 | 114 ± 27 | 151 ± 3.4 | 81.8 ± 29 | 110 ± 11 | 128.7 ± 1.1 | 137 ± 11 | 131 ± 12 | 122 ± 81 | – | – | – | – | –
11 | CC(C)n1cnc2c(NCCc3ccc(O)cc3)nc(-c3csc4ccccc34)nc21 [StemRegenin1] | 98.5 ± 13 | 115 ± 20 | 94.3 ± 36 | 55 ± 7.7 | 90 ± 7.6 | 116 ± 2.2 | 104 ± 2.8 | 86 ± 4 | 101 ± 24 | 97.5 ± 25 | 132 ± 74 | 75.9 ± 11 | 103 ± 9 | 108 ± 14 | 85.7 ± 28 | 29.6 ± 8.4 | 65.1 ± 15 | 135 ± 5.4 | 153 ± 85 | 30.4 ± 12 | – | – | – | – | –
12 | O=c1cc(-c2cccc3c2Sc2ccccc2S3)oc(N2CCOCC2)c1 | 76.9 ± 1.4 | 116 ± 4.1 | 110.8 ± 0.94 | 109 ± 22 | 91.6 ± 7.9 | 79.2 ± 1.7 | 88.4 ± 18 | 82.7 ± 9.9 | 119 ± 4.4 | 77.3 ± 7.3 | 89.5 ± 12 | 46.8 ± 19 | 85.1 ± 17 | 94.4 ± 12 | 115 ± 17 | 54.3 ± 6.1 | 81.3 ± 28 | 98.8 ± 25 | 75.5 ± 26 | 58.3 ± 15 | – | – | – | – | –
13 | CCOc1cc2ncc(C#N)c(Nc3ccc(OCc4ccccn4)c(Cl)c3)c2cc1NC(=O)/C=C/CN(C)C [Neratinib] | 86.8 ± 7.5 | 99.2 ± 16 | 79.7 ± 16 | 51.4 ± 2.7 | 85 ± 2.7 | 101 ± 7 | 95.9 ± 12 | 50 ± 3.4 | 98.3 ± 10 | 74.1 ± 4 | 91.24 ± 0.32 | 46.6 ± 1.1 | 92.7 ± 6.7 | 70.3 ± 1.5 | 27.1 ± 5.3 | 17.2 ± 0.58 | 100 ± 32 | 73.9 ± 1.6 | 70.7 ± 6 | 47.4 ± 0.48 | – | – | – | – | –
